How the values were obtained:
[1] = people taking Reductil, background statement; cited from earlier work
[2] = biological target: T1, pancreatic lipase (Homo sapiens, UniProt P16233); settings: background statement; cited from earlier work
T1 sequence (P16233 17-465): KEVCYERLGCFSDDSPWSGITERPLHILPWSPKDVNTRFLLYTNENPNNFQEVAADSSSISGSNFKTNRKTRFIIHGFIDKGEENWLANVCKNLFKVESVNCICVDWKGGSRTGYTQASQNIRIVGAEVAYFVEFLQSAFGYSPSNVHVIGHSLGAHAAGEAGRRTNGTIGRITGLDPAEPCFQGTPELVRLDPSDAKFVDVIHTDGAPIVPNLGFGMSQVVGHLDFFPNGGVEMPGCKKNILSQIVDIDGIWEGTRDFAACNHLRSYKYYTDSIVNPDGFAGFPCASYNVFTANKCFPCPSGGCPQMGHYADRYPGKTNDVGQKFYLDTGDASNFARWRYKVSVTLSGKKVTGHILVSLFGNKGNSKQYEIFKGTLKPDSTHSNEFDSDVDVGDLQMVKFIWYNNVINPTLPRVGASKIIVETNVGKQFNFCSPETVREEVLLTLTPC

[3] = system: high-fat diet-fed mice; assay: Anti-obesity effect by repeated administration for 8 weeks in obesity model induced by high-fat diet; assay type: in vivo, C57BL/6 mice; settings: HFD mice
Method: 6-week-old male C57BL/6 mice (Orient Bio) were used after being acclimated for one week. A high-fat diet was fed to induce obesity. D12451 (Calorie composition: 45% of fats, 35% of carbohydrates, and 20% of proteins, Research Diets, Inc.) was used as the high-fat diet, and Purina Rodent Chow was used as a normal diet. The mice were allowed to freely access feed and drinking water. The CMO1 mixture was administered together with the […] feed at a weight ratio of 0.1% (w/w) and 0.25% (w/w). Xenical™ (orlistat, Sigma, MO, USA), as a control drug, was administered together with the […] feed in a weight ratio of 0.1% (w/w). A daily dose of the CMO1 mixture, calculated based on an average daily feed intake, was 70 mg/kg/day in the case of 0.1%, and 190 mg/kg/day in the case of 0.25%, and a daily dose of Xenical™ was […]. Body weights and feed intakes were measured every week, and organs were excised and weighed in autopsy after 8 weeks and then stored at −80° C. In autopsy, blood was collected from the abdominal vein after laparotomy under deep anesthesia. The blood was stored in a cryogenic refrigerator according to analysis conditions and thawed immediately before initiating the experiment. Levels of total cholesterol, triglyceride, HDL cholesterol, and LDL cholesterol were analyzed using an automatic blood biochemistry analyzer (Hitachi, Japan). In order to analyze size changes in adipocytes and hepatocytes caused by accumulation of fats, the organ was immobilized with 10% neutralized formalin (Microme, USA) for 24 hours, embedded into paraffin blocks via a general tissue treatment process, and sectioned into 4 μm slices. The slices were hydrated and stained with hematoxylin and eosin (H&E). The stained tissue was observed using an optical microscope (BX51, Olympus, Japan) to measure sizes of cells. […] All measurement values of each experiment are expressed as mean±standard error. […]

[4] = during 8-week administration in feed

Question: Which “higher number of cardiovascular events versus a control group” value [1] does the source give for `CC(C)CC(N(C)C)C1(c2ccc(Cl)cc2)CCC1` (centres unmarked) [Reductil, Sibutramine] here?
Answer: 16%

Question: Which “inhibition of absorption of dietary fat” value [2] does the source give for `CCCCCCCCCCC[C@@H](C[C@@H]1OC(=O)[C@H]1CCCCCC)OC(=O)[C@H](CC(C)C)NC=O` [Xenical, Orlistat] here?
Answer: approximately 30%

Question: What about the hardness of excrement ([3]; 8-week administration in feed) of the same compound?
Answer: very soft excrement

Question: And the “appearance of hair during administration” value [3, 4]?
Answer: oily and lumpy hair

Question: What about the “diarrhea (side effect)” value [3, 4] of the same compound?
Answer: serious diarrhea

From patent US11484562B2, “Composition for preventing or treating obesity comprising natural mixture extracts” (KOREA INSTITUTE OF ORIENTAL MEDICINE, priority 2018, dated 2022)
